The numbers were not newly measured in US20120237901A1, “Denture Adhesive Remover for Intraoral and Extraoral Use” (priority 2011, published 2012), which cites them from elsewhere.

The structures appear in SMILES notation.

In data set [1] the test system is bacteria. Conditions: 5% solution of acetic acid in water; reportedly.
For data set [2], the system named is mold. The settings on record: 5% solution of acetic acid in water; reportedly.

In the case of `CC(=O)O` [acetic acid], the effective against bacteria in data set [1] was 99.9%. Also, the effective against mold in data set [2] is 90%.
